Measurements taken from patent publication US7371871B2, “Inhibitors of glutaminyl cyclase” (Probiodrug AG, priority 2003, dated 2008).

Columns and labels:
human QC [1] = target: T1, human QC (Homo sapiens, UniProt Q16769); conditions: Busby, W. H. J. et al. 1987; cited from earlier work
human QC [2] = target: T1, human QC; assay: Inhibitor assay of glutaminyl cyclase (QC), determination of Ki-values; conditions: for inhibition of human QC (in words): Example 5
Description: Excitation/emission wavelengths were 320/410 nm. The assay reactions were initiated by addition of glutaminyl cyclase.
Reactions were carried out at 30° C. utilizing the NOVOStar reader for microplates (BMG labtechnologies). […] Excitation/emission wavelengths were 380/460 nm. The assay reactions were initiated by addition of glutaminyl cyclase. […] The kinetic data were evaluated using GraFit sofware.
The initial velocities were evaluated and the enzymatic activity was determined from a standard curve of ammonia under assay conditions. All samples were measured at 30° C., using either the [sequence]luor Plus or the Sunrise (both from TECAN) reader for microplates. Kinetic data was evaluated using GraFit software.
For inhibitor testing, the sample composition was the same as described above, except of the putative inhibitory compound added. […] For detailed investigations of the inhibition and determination of Ki-values, influence of the inhibitor on the auxiliary enzymes was investigated first.

T1 sequence (Q16769 29-361): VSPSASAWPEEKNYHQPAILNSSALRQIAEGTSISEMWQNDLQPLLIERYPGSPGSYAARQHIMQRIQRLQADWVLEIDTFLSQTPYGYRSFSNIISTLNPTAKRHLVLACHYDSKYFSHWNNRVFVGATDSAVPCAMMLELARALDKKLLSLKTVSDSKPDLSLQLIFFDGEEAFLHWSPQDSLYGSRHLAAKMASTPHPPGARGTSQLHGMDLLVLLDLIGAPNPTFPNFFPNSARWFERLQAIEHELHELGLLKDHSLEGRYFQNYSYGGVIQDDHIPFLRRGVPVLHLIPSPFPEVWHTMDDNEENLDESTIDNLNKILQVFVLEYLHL

Compound | inhibition of human QC detected (human QC [1]) | inhibition of human QC (in words) (human QC [2]) | further results
c1cnc2c(c1)ccc1cccnc12 [1,10-phenanthroline] | inhibition | – | –
Cn1cnc(CCN)c1 [1-methyl-4-(β-amino-ethyl)-imi-dazole] | – | complete loss of inhibitory activity | –
c1ccc(-n2ccnc2)cc1 [1-phenylimidazole] | – | inactive | –
CC(=O)c1ccc(NC(=S)NCCCn2ccnc2)cc1 [Example 9] | – | – | Ki (human QC [2]): 1790 nM
reduced 6-methylpterin | inhibition | – | –
